Patent US9114149B2, “[CU(thp)4]n[X]-n compounds for the treatment of a broad range of human solid tumors, including refractory tumors” (Universita Degli Studi Di Padova, priority 2011, dated 2015)

What was measured:
[1] = tested on: human colon adenocarcinoma cells sensitive (HCT-116); assay: Cross resistance MTT test, HCT-116 (OXP sensitive); assay type: cell-based; conditions: 72 h, probit analysis
[2] = Tissue distribution (Cu content) in LLC bearing mice; assay type: in vivo, C57BL mice; conditions: 50 mg/kg i.p., 24 hrs; Cu by atomic absorption, treated versus control (FIG. 4)
Procedure: Mice were inoculated […]. on the right flank with 2×10^6 LLC cells. After 10 days, CP was administered i.p. at a dose of 50 mg/kg. The mice were sacrificed after 24 hours and tumor (indicated with 1), brain (indicated with 2), spleen (indicated with 3), kidney (indicated with 4), intestine (indicated with 5), liver (indicated with 6) and stomach (indicated with 7) were excised. Tissues were washed in ice-cold saline and weighed after removing excess fluid. All samples were mineralized in HNO3 and Cu content in each sample was measured by atomic absorption spectrophotometry. The Y axis indicates the ratio of copper amount in treated versus control mice.
To assess the potential selectivity to the solid tumor mass, tissue distribution of CP was investigated in LLC bearing C57BL mice. Biodistribution studies are very helpful in assessing the ability of a molecule to traverse multilayers of cells. Chemotherapy of solid tumors often fails because adequate cytotoxic concentrations are not achieved due to poor penetration and non-uniform distribution of the drug.
To assess the potential selectivity to the solid tumor mass, tissue distribution of [Cu(thp)4][PF6] (CP) was investigated in LLC bearing C57BL mice. On day 10 after tumor implantation, mice were treated with a single i.p. injection of 50 mg/kg of CP.

[3] = tested on: human leukemic cell lines; assay: Cytotoxicity against human leukemic cell lines; assay type: cell-based; conditions: several human leukemic cell lines
Excerpt: The detection of drug uptake by tumor cells in animal models clearly attest that CP efficiently and selectively accumulates in the solid tumor mass.

[4] = Solubility in water; assay type: physicochemical
[5] = tested on: human cancer versus human normal cells
[6] = human non-tumor versus malignant cells

## F[P-](F)(F)(F)(F)F.OC[P+](CO)(CO)[Cu-3]([P+](CO)(CO)CO)([P+](CO)(CO)CO)[P+](CO)(CO)CO [CP, [Cu(thp)4][PF6]]
[1]
  IC50: 1400 ± 500 nM
[2]
  CP concentration in solid tumor mass: highest CP concentration
  copper drug in brain: No copper drug was detected
  copper drug in intestinal tract: very little
[3]
  cytotoxicity against human leukemic cell lines: high cytotoxicity
[4]
  solubility in water: excellent solubility in water
[5]; average IC50 towards normal cells divided by average IC50 for the malignant cells
  Selectivity index (SI): 32.4
[5]; [6]
  SI fold higher than CDDP: about 2 fold
  SI fold higher than OXP: ~3 fold
